The values below come from US6297281A, “Association of no syntase inhibitors with trappers of oxygen reactive forms” (priority 1996, dated 2001).

Assay [1] has as its target T1, inducible NO synthase (Mus musculus, UniProt P29477).
T1 construct: The NO synthase is isolated with an extraction buffer; endogenous in cells; sonicated, 100,000 g ultracentrifuged extract
The experiment in a line: In vitro effect on inducible NO synthase of murine macrophages J774A1 (formation of citrulline). As to conditions: NO synthase isolated from LPS/IFN-γ activated J774A1 macrophages, pH 7.4. Type of assay: biochemical.
Protocol: 2) In vitro effect on inducible NO synthase of murine macrophages J774A1
Murine macrophages J774A1 produce a large quantity of nitrogen monoxide after activation by lipopolysaccharides (LPS) and interferon-γ(IFN-γ). The cells are cultivated in DMEM medium (Dulbecco's Modified Eagle Medium) enriched with 10% foetal calf serum at 37° C. under an atmosphere of 5% CO2 after activation by LPS and IFN-γ. They are seeded in a quantity of 5000 cells/cm^2 in 150 cm^2 bottles. The incubations are carried out in the presence of LPS (1g/ml) and murine IFN-γ (50 U/ml) in DMEM enriched with 10% foetal calf serum. The NO synthase is isolated with an extraction buffer (HEPES 50 mM, pH 7.4, dithiothreitol 0.5 mM, pepstatin A 1 mg/ml, leupeptin 1 mg/ml, soya trypsin inhibitor 1 mg/ml, antipain 1 mg/ml, and PMSF 10 mg/ml). After sonication in the extraction buffer at 4° C., the homogenised products are ultracentrifuged (100,000 g with 3,5-di-tert.butyl-4-hydroxybenzoic acid 4° C. for 1 h). The protocol is then identical to that of cerebellum NO synthase except for the composition of the incubation buffer (100 mM of HEPES, pH 7.4, 1 mM dithiothreitol, 2.5 mM of CaCl2, 10 M of tetrahydrobiopterin, FAD 10 μM, BSA 1 mg/ml, 2 mM of reduced NADPH).

The test system of assay [2] is production of superoxide anions by J774A1 cells. The experiment in a line: In vitro effect on the formation of superoxide anions (PMA-activated J774A1 cells, luminol chemiluminescence). The format is cell-based, murine. Here is the method:
4) In vitro effect on the formation of superoxide anions
The activation of the macrophage cells J774A1 by phorbol myristate acetate (PMA) leads to the production of superoxide anions in a few minutes. These superoxide anions are able to oxidise a luminescent substrate, luminol. This reaction generates photons, the production of which is measured by means of a chemiluminometer. The effects of the products on the production of superoxide anions are tested by incubating the J774A1 cells at 37° C. in the presence of PMA, products to be tested, and luminol. The results are expressed in terms of the IC50 value.

Assay [3] deals with focal cerebral ischaemia. The assay can be described thus: Effect on focal cerebral ischaemia with reperfusion (transient occlusion of the middle cerebral artery). The format is in vivo, rat (male Sprague-Dawley). Here is the method:
Their activity was evaluated on a model of focal cerebral ischaemia in the rat. […] The effects of the combination were compared with those produced by a treatment with the inhibitor of nitrogen monoxide or the trap of reactive forms of oxygen alone.
5) Effect on focal cerebral ischaemia with reperfusion
The experiments are carried out on male Sprague-Dawley rats (Charles River) weighing between 330 and 360 g. After anaesthesia with isoflurane, the rats undergo transient occlusion of the middle cerebral artery described by Memezawa et al. (Exp. Brain Res. 89, 67-78, 1992). A wire is introduced into the anterior cerebral artery bringing about an occlusion of the middle cerebral artery. Two hours later, the wire is withdrawn so as to permit recirculation of the blood to the Willis polygon. The temperature of the animals is monitored and controlled for 6 hours after occlusion. Forty eight hours after occlusion, the rats are anlesthetised with isoflurane and decapitated. Samples of brain are taken rapidly and immersed for 2 minutes in isopentane at -15° C. Six sections 2 mm thick are obtained and placed in a solution containing 2% 2,3,5-triphenyltetrazolium chloride (TCC) for 20 min and then fixed with formalin. The infarcted zone appears white and the healthy zone red. The infarcted surface area is measured at the site of the (sections by means of an image analyser. The volume of the infarct is calculated by integrating these various surface areas in the knowledge that they are 2 mm apart. The products are administered intraperitoneally. The first treatment is carried out 4 hours after occlusion, that is, 2 hours after the w ire was withdrawn, then 24 hours afterwards.
Compound of example 1: 4 groups of animals are created:
Group 1: treated with physiol ogical serum
Group 2: treated with A (30 mg/kg)
Group 3: treated with B (20 mg/kg)
Group 4: treated with AB (50 mg/kg)
Compound of example 2: 4 groups of animals are created:
Group 1: treated with physiological serum
Group 2: treated with A (10 mg/kg)
Group 4: treated with AB (A: 10 mg/kg and B: 20 mg/kg)
Compound of example 3: 4 groups of animals are created:
Group 2: treated with A (0.03 mg/kg i.v.)
Group 3: treated with B (20 mg/kg i.p.)
Group 4: treated with AB (A: 0.03 mg/kg i.v. and B: 20 mg/kg i.p.)

Assay [4] addresses constitutive NO synthase (Rattus norvegicus, UniProt P29476). The assay can be described thus: biochemical. How it is done: 1) In vitro effect of constitutive NO synthase on the rat cerebellum
The test consists in measuring the conversion, by NO synthase, of L-arginine to L-citrulline. Samples of cerebella of Sprague-Dawley rats (300 g--Charles River) are taken rapidly, dissected at 4° C. and homogenised in a volume of extraction buffer (HEPES 50 mM, EDTA 1 mM, pH 7.4, pepstatin A […], leupeptin […]) centrifuged at 21000 g for 15 min at 4° C. The assay is carried out in glass test tubes in which are distributed […] of incubation buffer containing 100 mM of HEPES, pH 7.4, 2 mM of EDTA, 2.5 mM of CaCl2, 2 mM of dithiothreitol,2 mM of reduced NADPH and 10 µg/ml of calmodulin. […] The reaction is initiated by adding 50 μl of homogenised product, the final volume being 200 μl (the 25 μl shortfall being either water or the product being tested). After 15 min, the reaction is stopped with 2 ml of stop buffer (20 mM of HEPES, pH 5.5, 2 mM of EDTA). After passing samples over a column of 1 ml of DOWEX resin, the radioactivity is quantified by a liquid scintillation spectrometer.
The results are expressed in terms of the IC50 value and are summarised in the table of paragraph 2 (first column of results entitled "constitutive NO synthase, formation of citrulline").

Assay [5] concerns the target T1, inducible NO synthase. The experiment in a line: In vitro effect on the production of nitrites by murine macrophages J774A1. The format is cell-based. As to conditions: J774A1 cells, LPS 1 μg/ml + IFN-γ 50 U/ml, 48 hours; read-out: IC50 Inducible NO synthase (formation of nitrites). How it is done:
3) In vitro effect on the production of nitrites by murine macrophages J774A1
This test is used to measure the inhibitory activity of the products on inducible NO synthase of culture cells. The cells are cultivated in DMEM medium (Dulbecco's Modified Eagle Medium) enriched with 10% foetal calf serum at 37° C. under an atmosphere of 5% CO2. For the experiments, they are distributed in 96-well plates (50,000 cells per well) and incubated in DMEM without phenol red containing 10% foetal calf serum with LPS (1 μg/ml) and murine IFN-γ(50 U/ml) in the presence or absence of the products to be tested. After 48 hours, the concentration of nitrites in the culture media, degradation products of nitrogen monoxide, is measured by a colorimetric method according to Green et al. (Analytical Biochemistry, 126, 131-138 (1982)). The results are expressed in terms of the IC50 value and are summarised in the table of paragraph 2 (third column of results entitled "inducible NO synthase, formation of nitrites").

Setting [6] is: 3,5-di-tert-butyl-4-hydroxybenzoic acid 20 mg/kg, aminoguanidine, their combination.
Where [7] appears, read: Example 1, i.p. 4 h and 24 h after, A 30 mg/kg (NS), B 20 mg/kg (NS), AB 50 mg/kg (** very significant), control 270.4 ± 30.05.
[8] abbreviates: Example 1, i.p., A 30 mg/kg, B 20 mg/kg, AB 50 mg/kg.
[9] abbreviates: Example 2, i.p., A 10 mg/kg (NS), B 20 mg/kg (NS), AB: A 10 mg/kg and B 20 mg/kg (** very significant), control 270.4 ± 30.05.
[10] abbreviates: Example 2, i.p., A 10 mg/kg, B 20 mg/kg, AB: A 10 mg/kg and B 20 mg/kg.
Where [11] appears, read: Example 3, A 0.03 mg/kg i.v. (NS), B 20 mg/kg i.p. (NS), AB: A 0.03 mg/kg i.v. and B 20 mg/kg i.p. (** very significant), control 237.68 ± 31.51.
The mark [12] stands for this setting: Example 3, A 0.03 mg/kg i.v., B 20 mg/kg i.p., AB: A 0.03 mg/kg i.v. and B 20 mg/kg i.p.

Like-named read-outs stand apart in the source and are kept apart here.

In general, IC50 refers to the point on the concentration scale where inhibition reaches its midpoint.

Regarding `N=C(N)NN` [Example 1 A, aminoguanidine], the IC50 in assay [1] was 29 µM; in assay [4], more than 300 µM; in assay [5], 22 µM. In addition, the “IC50 formation of superoxide anions” value in assay [2] (37° C.) is “inactive”. Besides, in assay [3] (setting [6]), the “protection of the animals from ischaemia (in words)” value (from here on “protection of the animals”) was “low activity”. Also, the Volume of infarct in assay [3] (setting [7]) was found to be 233 ± 30.15. The “% Protection” value in assay [3] (setting [8]) is listed as 13.8%.
As for `CC(C)(C)c1cc(C(=O)O)cc(C(C)(C)C)c1O.N=C(N)NN` [Example 1 AB], the IC50 is 57 µM in assay [1]; 30 µM in assay [2] (37° C.); more than 300 µM in assay [4] (read-out: IC50 Constitutive NO synthase (formation of citrulline), rat cerebellum homogenate, pH 7.4, 15 min); 26 µM in assay [5]. For the same molecule, in assay [3] (setting [6]), the “protection of the animals” value is “protects the animals from ischaemia in a highly significant manner”. The Volume of infarct in assay [3] (setting [7]) came to 89.6 ± 22.42. Moreover, the “% Protection” value in assay [3] (setting [8]) was determined as 63.2%.
On to `CC(C)(C)c1cc(C(=O)O)cc(C(C)(C)C)c1O` [Example 1 B, 3,5-di-tert-butyl-4-hydroxybenzoic acid], for which, in assay [2] (Mus musculus, J774.A1, 37° C.), the concentration for half-maximal inhibition (IC50) was determined as 30 µM. In addition, the “protection of the animals” value in assay [3] (setting [6]) is “inactive”. The figures for the Volume of infarct in assay [3] (setting [7]), in assay [3] (setting [9]) and in assay [3] (setting [11]) were 250.9 ± 37.86, 250.9 ± 37.86 and 222.9 ± 7.34, respectively. Moreover, the “% Protection” value in assay [3] (setting [8]) was 7.1%; in assay [3] (setting [10]) it was 7.1%; in assay [3] (setting [12]), 6.2%.
As for `O=[N+]([O-])c1cccc2cn[nH]c12` [Example 2 A, 7-nitroindazole], in assay [3] (7-nitroindazole 10 mg/kg, combined with 3,5-di-tert-butyl-4-hydroxybenzoic acid), the “protection of the animals” value was “not significantly active”. Moreover, the Volume of infarct in assay [3] (setting [9]) is 238.9 ± 27.08. Moreover, in assay [3] (setting [10]), the “% Protection” value was determined as 11.7%.
Turning to `N=C(NCCC[C@H](N)C(=O)O)N[N+](=O)[O-]` [Example 3 A, NGnitroarginine], the Volume of infarct in assay [3] (setting [11]) came to 238.14 ± 35.94. Also, the “% Protection” value in assay [3] (setting [12]) worked out at 0%. Moreover, in assay [3] (nitroarginine 0.03 mg/kg, combined with i.p. 3,5-di-tert-butyl-4-hydroxybenzoic acid), the “protection of the animals” value is “not significantly active”.
